Assay: Effect of cation competition on ^23Na chemical shift and linewidth in vitro
Type: physicochemical
Details: for ^23Na chemical shift / ^23Na linewidth: 150 mM NaCl
Description: FIGS. 13A-13C depicts effect of cation competition on ^23Na chemical shift and linewidth induced by 2 mM TmDOTP^5−. (FIG. 13A)^23Na NMR spectra for 150 mM NaCl solutions containing 2 mM TmDOTP^5− alone, and in the presence of 2 mM Ca^2+, 2 mM Mg^2+, 10 mM K^+, and all three of these ions. Ca^2+, Mg^2+, and K^+ were introduced as the salts CaCl2, MgCl2, and KBr, respectively. These concentrations were all chosen to represent physiological concentrations in the interstitial space. […] Chemical shift ranged between 2.433 ppm (FIG. 13B, alone) and 2.352 ppm (FIG. 13B, all), representing only a 3% change in the presence of all competing cations. Linewidth ranged between 0.2433 ppm (FIG. 13C, alone) and 0.2285 ppm (FIG. 13C, all), representing only a 6% change in the presence of all competing cations.
Upon translation of the present in vitro results to in vivo situations, certain confounding factors must be addressed. In the interstitial space, there are additional cations such as calcium (Ca^2+), magnesium (Mg^2+) and K^+ which will also bind to anionic contrast agents like TmDOTP^5−. However, physiologically their concentrations are low compared to Na^+. […] Additionally, there is a contribution to the chemical shift from bulk magnetic susceptibility (BMS) changes brought about by TmDOTP^5− in addition to the hyperfine shifts induced by interactions with Na^+. Experiments were performed on different DOTP^8− salts in phantoms parallel and perpendicular to the main magnetic field B0, and also spherical phantoms in which there was no BMS contribution. Only a small portion (˜2%) of the total chemical shift for TmDOTP^5− was due to BMS arising due to anisotropy of the paramagnetic susceptibility, and the remainder was the hyperfine shift.

[1] = 2 mM TmDOTP^5− with 2 mM Ca^2+, 2 mM Mg^2+ and 10 mM K^+ (all)

## O=P([O-])([O-])CN1CCN(CP(=O)([O-])[O-])CCN(CP(=O)([O-])[O-])CCN(CP(=O)([O-])[O-])CC1.[Na+].[Na+].[Na+].[Na+].[Na+].[Tm+3] [TmDOTP^5−, sodium thulium (III) 1,4,7,10-tetraazacyclododecane-1,4,7,10-tetrakis(methylenephosphonate)]
2 mM TmDOTP^5−, alone vs all
  change in ^23Na chemical shift in the presence of all competing cations: 3%
  change in ^23Na linewidth in the presence of all competing cations: 6%
2 mM TmDOTP^5− alone
  ^23Na chemical shift: 2.433 ppm
  ^23Na linewidth: 0.2433 ppm
[1]
  ^23Na chemical shift: 2.352 ppm
  ^23Na linewidth: 0.2285 ppm
Typical in vivo concentrations of Ca^2+, Mg^2+, K^+
  changes in ^23Na chemical shift and linewidth by cationic competition: negligible changes
